These results are taken from the RepoRT retention time repository.

Structures can show the parent of a compound that is named as a salt.

This series can be described thus: RP, Waters ACQUITY UPLC HSS T3, 150 × 2.1 mm, 1.8 µm, 45 °C, 0.6 mL/min, estimated dead time 0.55 min; A: water + 0.1% formic acid, pH 3; B: acetonitrile + 0.1% formic acid, pH 3; gradient (min/%B) 0/1 0.1/1 10/55 10.15/65 10.30/75 10.45/85 10.60/95 10.70/100 11/100 11.55/100 11.65/1 11.70/1 11.80/1 11.90/1 12/1 12.10/1 12.15/1 12.65/1. The following applies: stereoisomer not certain.
Take `O=S(=O)(O)Oc1c[nH]c2ccccc12` [Indoxyl sulfate]: the LC retention time was 3.4 min.

With `O=C(O)c1cc(=O)[nH]c(=O)[nH]1` [Orotic acid], the LC retention time is 0.81 min.

On to `CC=C(C)C(=O)NCC(=O)O` [Tiglylglycine], for which the LC retention time was 2.92 min.

Regarding `NCCc1ccc(O)c(OS(=O)(=O)O)c1` [Dopamine 3-O-sulfate], the LC retention time was 1.56 min.

As to `Cc1ccc(OS(=O)(=O)O)cc1` [p-Cresol sulfate], the LC retention time is 4.2 min.

Regarding `O=c1[nH]cnc2c1ncn2C1OC(CO)C(O)C1O` (stereo not given) [Inosine], the LC retention time is 1.61 min.

With `O=C(O)c1cc(O)c(O)c(O)c1` [Gallic acid], the LC retention time was 1.72 min.

For the compound `CC(CCC(=O)O)C1CCC2C3C(O)CC4CC(O)CCC4(C)C3CC(O)C12C` (stereo not given) [Cholic acid], the LC retention time is 9.75 min.

Turning to `O=C(O)C1OC(Oc2c[nH]c3ccccc23)C(O)C(O)C1O` (stereo not given) [Indoxyl glucuronide], the LC retention time was 3.39 min.

With `O=C(O)CCCCCCC(=O)O` [Suberic acid], the LC retention time was 4.46 min.

In the case of `NC(Cc1ccc(O)cc1)C(=O)O` (stereo not given) [Tyrosine], the LC retention time was 1.38 min.

As to `O=C(O)c1ccc(CO)o1` [Sumiki's acid], the LC retention time is 2.1 min.

Regarding `CC1=CC(=O)NS(=O)(=O)O1` [Acesulfame], the LC retention time was 1.9 min.

For `Nc1ncnc2c1ncn2C1OC2COP(=O)(O)OC2C1O` (stereo not given) [Adenosine 3',5'-cyclic monophosphate], the LC retention time is 1.62 min.

In the case of `O=C(O)CCCC(=O)O` [Glutaric acid], the LC retention time was 1.86 min.

With `CC(O)(CC(=O)O)CC(=O)O` [3-Hydroxy-3-methylglutaric acid], the LC retention time is 1.55 min.

As to `O=C1O[C@H]([C@@H](O)CO)C(O)=C1OS(=O)(=O)O` [L-Ascorbic acid 2-sulfate], the LC retention time is 0.71 min.

Consider `CC(=O)NC(CCC(=O)O)C(=O)O` (stereo not given) [N-acetylglutamic acid], for which the LC retention time is 1.35 min.

`Cn1c(=O)c2c([nH]c(=O)n2C)n(C)c1=O` [1,3,7-Trimethyluric acid]: the LC retention time is 2.95 min.

Turning to `CC(=O)NC(Cc1ccc(O)cc1)C(=O)O` (stereo not given) [N-Acetyltyrosine], the LC retention time was 2.97 min.

In the case of `Cn1c(=O)[nH]c2[nH]c(=O)n(C)c2c1=O` [1,7-Dimethyluric acid], the LC retention time is 2.57 min.

On to `CC(=O)C1CCC2C3CC=C4CC(OS(=O)(=O)O)CCC4(C)C3CCC12C` (stereo not given) [Pregnenolone sulfate], for which the LC retention time is 9.81 min.

For `CCc1ccc(OS(=O)(=O)O)cc1` [4-Ethylphenylsulfate], the LC retention time is 5.73 min.

As to `O=C(O)CCCCCCCC(=O)O` [Azelaic acid], the LC retention time was 5.48 min.

In the case of `O=C1NS(=O)(=O)c2ccccc21` [Saccharin], the LC retention time was 2.7 min.

Consider `CC(CCC(=O)NCC(=O)O)C1CCC2C3C(O)CC4CC(O)CCC4(C)C3CCC12C` (stereo not given) [Glycoursodeoxycholic acid], for which the LC retention time is 8.4 min.

`CC(CCC(=O)NCC(=O)O)C1CCC2C3CCC4CC(OS(=O)(=O)O)CCC4(C)C3CC(O)C12C` (stereo not given) [Glycodeoxycholic acid-3-sulfate]: the LC retention time was 8.94 min.

`O=C(O)c1ccc(O)cc1` [4-Hydroxybenzoic acid]: the LC retention time is 3.16 min.

Turning to `CC(C)C(=O)NCC(=O)O` [Isobutyrylglycine], the LC retention time was 2.07 min.

On to `CC12CCC3C(CC=C4CC(OC5OC(C(=O)O)C(O)C(O)C5O)CCC43C)C1CCC2=O` (stereo not given) [Dehydroisoandrosterone 3-glucuronide], for which the LC retention time is 7.43 min.

For the compound `O=C(O)Cc1cccc(O)c1` [3-Hydroxyphenylacetic acid], the LC retention time is 3.74 min.

As to `O=C(O)C=Cc1ccc(O)cc1` [4-Hydroxycinnamic acid], the LC retention time is 4.35 min.

With `O=C(O)CNC(=O)c1ccc(O)cc1` [4-Hydroxyhippuric acid], the LC retention time is 2.45 min.

On to `CC(=O)NC(Cc1ccccc1)C(=O)O` (stereo not given) [N-Acetylphenylalanine], for which the LC retention time is 4.66 min.

On to `O=c1[nH]cnc2nc[nH]c12` [Hypoxanthine], for which the LC retention time was 1.2 min.

With `O=C(O)CCCCC(=O)O` [Adipic acid], the LC retention time was 2.59 min.

As to `O=C(O)CNC(=O)c1cccc(O)c1` [3-Hydroxyhippuric acid], the LC retention time is 2.73 min.

In the case of `CC(CCC(=O)NCCS(=O)(=O)O)C1CCC2C3CCC4CC(OS(=O)(=O)O)CCC4(C)C3CCC12C` (stereo not given) [Taurolithocholic acid 3-sulfate], the LC retention time was 8.93 min.

As for `Cc1cc2nc3c(=O)[nH]c(=O)nc-3n(CC(O)C(O)C(O)CO)c2cc1C` (stereo not given) [Riboflavin], the LC retention time is 3.82 min.

As for `NC(CCCCn1c(C=O)ccc1CO)C(=O)O` (stereo not given) [Pyrraline], the LC retention time is 2.49 min.

With `CC(C)(CO)C(O)C(=O)NCCC(=O)O` (stereo not given) [Pantothenic acid], the LC retention time is 2.31 min.

Consider `O=C(O)C(O)Cc1ccc(O)cc1` (stereo not given) [4-Hydroxyphenyllactic acid], for which the LC retention time was 2.81 min.

As for `COc1cc(C(O)C(=O)O)ccc1O` (stereo not given) [Vanillylmandelic acid], the LC retention time is 1.97 min.

In the case of `O=C(O)CC(Nc1ncnc2c1ncn2C1OC(CO)C(O)C1O)C(=O)O` (stereo not given) [Succinyladenosine], the LC retention time was 2.31 min.

With `Cn1c[n+](C2OC(CO)C(O)C2O)c2nc(N)[nH]c(=O)c21` (stereo not given) [7-Methylguanosine], the LC retention time is 2.05 min.

As to `CC(C)Cc1ccc(C(C)C(=O)OC2OC(C(=O)O)C(O)C(O)C2O)cc1` (stereo not given) [Ibuprofen acyl glucuronide], the LC retention time is 8.62 min.

Consider `O=C(O)CNC(=O)Cc1ccccc1` [Phenylacetylglycine], for which the LC retention time is 4.01 min.

For `CC(=O)NC(CCC(N)=O)C(=O)O` (stereo not given) [N-Acetylglutamine], the LC retention time is 0.978 min.

With `O=C(O)c1ccccc1O` [Salicylic acid], the LC retention time was 5.48 min.

Take `NC(Cc1ccc(OS(=O)(=O)O)cc1)C(=O)O` (stereo not given) [O-Sulfotyrosine]: the LC retention time is 1.5 min.

Take `CCC(C)(O)C(=O)O` (stereo not given) [2-Hydroxy-2-methylbutyric acid]: the LC retention time is 2.45 min.

Regarding `Nc1nc2c(ncn2C2OC(CO)C(O)C2O)c(=O)[nH]1` (stereo not given) [Guanosine], the LC retention time was 1.43 min.

`Cc1ccc(OC2OC(C(=O)O)C(O)C(O)C2O)cc1` (stereo not given) [p-Cresol glucuronide]: the LC retention time is 4.3 min.

Turning to `COc1cc(CC(=O)O)ccc1O` [Homovanillic acid], the LC retention time is 3.8 min.

In the case of `NCCc1ccc(OS(=O)(=O)O)c(O)c1` [Dopamine 4-O-sulfate], the LC retention time is 1.49 min.

`O=c1[nH]c(=O)c2[nH]cnc2[nH]1` [Xanthine]: the LC retention time was 1.31 min.

With `CC(C)(O)C(=O)O` [2-Hydroxyisobutyric acid], the LC retention time was 1.62 min.

In the case of `CC(CC(=O)O)C(=O)O` (stereo not given) [Methylsuccinic acid], the LC retention time was 2.19 min.

For `CC(=O)NC(Cc1c[nH]c2ccccc12)C(=O)O` (stereo not given) [N-Acetyltryptophan], the LC retention time is 4.96 min.

For the compound `CCC(C)C(=O)C(=O)O` (stereo not given) [3-Methyl-2-oxovaleric acid], the LC retention time was 3.22 min.
